One data set has as its system Ki67. As to the kind of experiment: Ki67 immunohistochemistry of tumor samples. Conditions: cycle 3 day 1 (N = 12), all dose levels; baseline 29.2% (N = 18); P = 0.041. Format: in vivo, human. The protocol: (§1) All immunohistochemistry analyses from tumor samples were performed at ICON Central Laboratories (Farmingdale, NY, USA) using the Ventana® BenchMark ULTRA™ automated staining instrument (Oro Valley, AZ, USA). Positive- and negative-control tissue and negative reagent controls were run for each marker, as well as low-ER controls for each run. Estrogen receptor levels were estimated as the number of positive tumor nuclei divided by the total number of tumor nuclei, expressed as a percentage for each receptor type. Evaluation of Ki67 was performed in accordance with Ki67 Working Group recommendations: 1) only nuclear staining was assessed as positive; 2) in cases of tumor heterogeneity (hot spots), 2 counts were performed and the average was reported; and 3) lymphocyte-rich areas were avoided when possible. Presence of activating ESR1 mutations (amino acid regions 370–381, 460–473, and 529–538) and their mutant allele fractions (MAFs) were determined in cell-free DNA (cfDNA), collected at baseline and at 8 weeks on treatment using the SafeSEQ Breast Cancer Panel (Sysmex Inostics, Baltimore, MD, USA).
(§2) In patients who underwent biomarker testing, samples collected on cycle 3 day 1 of treatment across all dose levels were compared to baseline samples to assess changes during treatment. […]

A further data set relates to ERα. As to the kind of experiment: ERα immunohistochemistry (Allred score) of tumor samples. Format: in vivo, human. Conditions: cycle 3 day 1 (N = 12), all dose levels; baseline 6.67 (N = 18); P = 0.13. The protocol:
as §1, §2

The subject of data set [1] is ER+/HER2− advanced or metastatic breast cancer. The arrangement: method as in ref 41 = [41]; 41. Lin NU, Borges VF, Patel MR, Okera M, Meisel J, Wesolowski R, et al. Results from the phase I/II study of OP-1250, an oral complete estrogen receptor (ER) antagonist (CERAN) and selective ER degra. Conditions: cited from earlier work.
Details of data set [2]: method as in PMID 38102750. Conditions: preclinical; cited from earlier work.
Where [3] appears, read: second- or third-line subanalysis, cancers with ESR1 mutations.

Read-outs that look alike come from different tables or passages of the source.

In the case of `CCCN1CC(Oc2ccc([C@@H]3c4[nH]c5ccccc5c4C[C@@H](C)N3CC(C)(C)F)cc2)C1` [palazestrant, Palazestrant], the “Ki67 levels on treatment” value with Ki67 is on record as 20.4%. In addition, the “ERα Allred score on treatment” value in the data set with ERα worked out at 5.17. In data set [1] (49 patients, second- or third-line therapy with or without prior chemotherapy), the “median PFS” value is listed as 7.2 months. In addition, the CBR in data set [1] (49 patients, second- or third-line therapy, overall) was 48%; in data set [1] (setting [3]), 59%. Moreover, the PFS in data set [1] (setting [3]) was 7.3 months. For the same molecule, the “pharmacokinetics relative to fulvestrant and elacestrant” value in data set [2] is recorded as “superior pharmacokinetics”.

(Values after publication PMC12210654, “Palazestrant, a novel oral Complete Estrogen Receptor Antagonist (CERAN) and Selective Estrogen Receptor Degrader (SERD), in patients with ER+/HER2− advanced or metastatic breast cancer: phase 1/2 study results” (Breast Cancer Research : BCR, 2025).)
